Experiment [1] addresses human PARG (Homo sapiens, UniProt Q86W56, E756N). The experiment in a line: fluorescence polarization direct binding. On the technique in general: Fluorescence polarisation rises when a labelled molecule tumbles more slowly, as on binding a larger partner.
The target of experiment [2] is human PARG (Homo sapiens, UniProt Q86W56, E755N). The experiment in a line: fluorescence polarization direct binding.

The Kd is the constant that tells how readily two partners part at equilibrium.

Sequence of human PARG (Homo sapiens, UniProt Q86W56, E756N) (Q86W56 whole entry E756N): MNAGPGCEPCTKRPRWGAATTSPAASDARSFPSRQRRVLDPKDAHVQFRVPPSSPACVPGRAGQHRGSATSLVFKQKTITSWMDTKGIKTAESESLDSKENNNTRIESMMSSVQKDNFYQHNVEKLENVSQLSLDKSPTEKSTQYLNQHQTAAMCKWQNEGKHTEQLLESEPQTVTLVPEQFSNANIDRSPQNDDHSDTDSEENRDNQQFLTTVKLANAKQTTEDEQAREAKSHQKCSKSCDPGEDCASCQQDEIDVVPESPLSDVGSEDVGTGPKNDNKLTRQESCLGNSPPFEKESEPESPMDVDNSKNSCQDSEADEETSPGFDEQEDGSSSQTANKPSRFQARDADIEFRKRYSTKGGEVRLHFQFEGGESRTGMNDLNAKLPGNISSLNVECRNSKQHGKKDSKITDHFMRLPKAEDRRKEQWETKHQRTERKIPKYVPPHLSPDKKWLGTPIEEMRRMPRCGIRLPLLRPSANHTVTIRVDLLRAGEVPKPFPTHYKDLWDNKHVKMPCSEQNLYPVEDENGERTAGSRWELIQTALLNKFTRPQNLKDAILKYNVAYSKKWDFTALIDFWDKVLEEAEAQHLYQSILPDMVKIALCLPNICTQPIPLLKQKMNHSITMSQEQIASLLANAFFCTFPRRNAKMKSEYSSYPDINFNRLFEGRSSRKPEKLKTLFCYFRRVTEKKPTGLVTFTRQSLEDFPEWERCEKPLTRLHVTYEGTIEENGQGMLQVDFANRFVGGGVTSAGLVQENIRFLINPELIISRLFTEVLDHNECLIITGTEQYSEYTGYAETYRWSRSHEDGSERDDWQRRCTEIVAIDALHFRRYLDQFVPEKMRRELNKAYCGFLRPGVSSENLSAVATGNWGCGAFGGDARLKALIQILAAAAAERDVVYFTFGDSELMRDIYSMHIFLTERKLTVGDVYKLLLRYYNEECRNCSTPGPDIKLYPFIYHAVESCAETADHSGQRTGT
Sequence of human PARG (Homo sapiens, UniProt Q86W56, E755N) (Q86W56 whole entry E755N): as the sequence (Q86W56 whole entry E756N) above, with E755N, N756E counted along it

With Cy3 ADP-ribose dimer [compound 22], the Kd on human PARG [1] stood at 83 ± 7 nM; on human PARG [2], 208 ± 14 nM.

The record behind these values is PMC6089346 (Journal of the American Chemical Society, 2015).
